In assay [1] the test system is orexin nerve cells differentiated from human iPS cells. Description: Disappearance of orexin nerve cells under high glucose concentration and protection or recovery from disappearance (Example 1). It counts as cell-based. To be noted: for recovery of orexin nerve cells (expression of orexin): culture under high glucose concentration extended for 2 or 4 more days, compound then added to the medium; for disappearance of the orexin nerve cells (orexin (Hcrt) expression): high glucose concentration (25 mM), 8 days, addition concentration 10 μM ManNAc, 1 μM ManNAcF. How it is done: (§1) Total RNA was extracted from the harvested cells by using RNeasy plus Mini Kit (QIAGEN). Then, using SuperScript III First Strand Synthesis System (Invitrogen), a reverse transcription reaction was performed in a reaction mixture containing total RNA (1 μg) and Oligo (dT), whereby cDNA was synthesized.
(§2) PCR reaction was performed on a 10 μl scale, 1 U LA-Tag DNA Polymerase (Takara) was added to 0.5 μl of cDNA, 5 μl of 2×GC Buffer I, 200 μM of each dNTP, 1.5 mM MgCl2 and final concentration 0.2 μM of each primer and, after heat denaturation at 95° C. for 3 min, and PCR was performed under the conditions of (95° C. 30 sec, 55° C. 30 sec, 72° C. 30 sec)×35 cycles (20 cycles for Actb). The primers used are shown below.
(§3) Each PCR product was electrophoresed on 2% agarose gel and stained with ethidium bromide, and the bands were observed by UV irradiation.
The orexin nerve cells were cultured in a neuronal differentiation medium (G-MEM+10% KSR (Knockout Serum Replacement, Invitrogen)) for 8 days, and maintained in vitro. In this case, the cells were divided based on the glucose concentration in the medium into two groups having low glucose concentration (5 mM) and high glucose concentration (25 mM) and cultured.

For assay [2] the test system is unchanged. Put plainly: Protection or recovery of orexin nerve cells under high glucose by various ManNAc derivatives (Example 3). To be noted: for recovery activity of orexin production (Hcrt expression intensity): 12-day course: high glucose 25 mM from day 0, compound 1 μM added from +day 8, harvested +day 12. It counts as cell-based. As for the experimental part:
as §1, §2, §3
The orexin nerve cells were cultured in a neuronal differentiation medium (G-MEM+10% KSR (KnockOut Serum Replacement, Invitrogen)) for 8 days or 12 days, and maintained in vitro. In this case, the glucose concentration of the medium was set to a high glucose concentration (25 mM), ManNAc or various ManNAc derivatives (each 1 μM) were added, and the cells were cultured. In the 8-day culture course, glucose and ManNAc or various ManNAc derivatives were added to the medium from the start of the culture (+day 0), the cells were harvested on +day 8 the orexin expression was analyzed. As a control, orexin nerve cells cultured at low glucose concentration (5 mM) were prepared. In the 12-day culture course, high glucose was added from the start of the culture (+day 0), ManNAc or various ManNAc derivatives were added to the medium from +day 8 from the start of the culture, the cells were harvested on +day 12, and the orexin expression was analyzed. As a control, orexin nerve cells cultured at low glucose concentration (5 mM) from +day 8 from the start of the culture were prepared. According to the expression analysis by the RT-PCR method described in Reference Example 1, the expression of Hcrt gene was examined. Based on the expression of Hcrt gene in orexin nerve cells at the start of the culture, expression of Hcrt gene in orexin nerve cells after culture with the addition of ManNAc or various ManNAc derivatives under high glucose conditions is shown by expression intensity (FIG. 3).

The subject of the next assay is human iPS cells. Description: Orexin cell induction from human iPS cells (SDIA differentiation culture, Hcrt RT-PCR). Conditions: for orexin cell induction activity (Hcrt expression): 8, 40, 200 nM, 1 μM and 5 μM instead of 1.0 mM ManNAc, compared to ManNAc. It counts as cell-based. How it is done: Human iPS cell line 201B7 (HSP0001) was obtained from BioResource Center, RIKEN, Japan via National BioResource project (MEXT, Japan). Human iPS cells were maintained on a feeder layer of mitomycin C-treated STO/Neo resistant/LIF(SNL) feeder cells in primates ES medium (ReproCELL) supplemented with 5 ng/mL recombinant human bFGF (Wako). For differentiation induction into nerve by SDIA and BMP4 system, human iPS cells were cocultured with PA6 for 20 days. 5 nM BMP4 was supplemented from day 7. From the start of the differentiation culture (day 0), ManNAc was added to a neuronal differentiation medium to 1.0 mM, and the medium was exchanged on days 7, 10 and 14 of differentiation culture. In addition, 5 nM recombinant human BMP4 (Wako) was added from day 7 of the differentiation culture. On day 14 of the differentiation culture, EX-527 (SIGMA-ALDRICH) was added to neuronal differentiation medium to 50 nM, or BADGP (SIGMA-ALDRICH) was added to neuronal differentiation medium to 5 mM, and the cells were harvested on day 20 of the differentiation culture and subjected to RT-PCR.
as §1, §2, §3
According to the method described in Reference Example 1 except that ManNAc, ManNAcF, 5S-ManNAc, 5S-ManNAcF, ManNCOOMe or ManNCOOEt (8, 40, 200 nM, 1 μM and 5 μM, respectively) was added instead of 1.0 mM ManNAc, orexin cells were induced from human iPS cells. The expression of orexin gene (Hcrt) in the cells induced under the various conditions was examined.

In assay [3] the test system is orexin nerve cells in the brain of diabetic model mice (db/db mouse). Description: Protection of nerve cells from disappearance at individual level, high fat feed db/db mouse, in situ hybridization. It counts as in vivo. Conditions: high fat feed 6 to 8 weeks of age, 5 μg/μl ManNAc containing drinking water. As for the experimental part:
To confirm effectiveness of ManNAc for nerve cell protection at an individual level, the number of orexin nerve cells and orexin expression were examined using genetically obese mouse (db/db mouse, hetero mouse as control, all male) (each group n=6). The breeding conditions of each group (6-8 weeks old) are as described below. […]
high fat feed+drinking water group high fat feed+5 μg/μl ManNAc containing drinking water group normal food+drinking water group normal food+5 μg/μl ManNAc containing drinking water group
Three individual mice from each group mentioned above were subjected to Nembutal anesthesia, and perfusion was fixed with formamide fixative (Genostaff). The brain was taken out, embedded in paraffin, and sections with 6 μm thickness in the sagittal direction were prepared. […]
was cloned into […] vector (Promega), and using DIG RNA Labeling Mix (Roche) and the plasmid as a template, digoxigenin-labeled RNA probe was prepared. […] The cells expressing orexin gene were counted, and the mean of 3 individuals and standard error were determined.

For assay [4], the system named is renal proximal tubule epithelial cells derived from type II diabetes patients (D-RPTEC). Description: Histone O-GlcNAc modification level in D-RPTEC by immunofluorescence staining. It counts as cell-based, human. To be noted: D-RPTEC cultured 96 hr under high glucose (25 mM glucose). How it is done:
Normal human renal proximal tubule epithelial cells and RPTEC derived from type II diabetes patients (D-RPTEC) were purchased from Lonza. RPTEC and D-RPTEC maintained with REGM™ Renal Epithelial Cell proliferation Medium Bullet Kit (Lonza) were each seeded in a 4-well dish at 1×10^4 cells per 1 well, and cultured for 4 days in a control medium or high glucose medium (adjusted to final concentration of 25 mM with 2.5 M glucose solution).
The cultured cells were fixed with 4% para-formaldehyde for 20 min and, after a permeabilization treatment with 0.2% TritonX-100-PBS solution, treated overnight with a blocking solution [PBS(−) containing 5% bovine serum-derived albumin (BSA), 0.1% Tween20, 0.2% TritonX-100] at 4° C. Then, the cells were reacted with anti-histone O-GlcNAc antibody (20B2) diluted with 5% BSA-PBS(−)-0.1% Tween20 at 4° C. overnight, reacted with secondary antibody diluted with PBS(−) at room temperature for 1 hr. The nucleus was stained with 1 μg/ml DAPI (Dojindo) at room temperature for 20 min, mounted in mountant (VECTASHIELD), and slides were prepared. Observation was performed with an integrated confocal laser microscope (FV10i, OLYMPUS). After obtaining images, the number of O-GlcNAc signals in the nucleus was measured by image analysis software Cell Profiler (www.cellprofiler.org), and statistical processing was performed by Wilcoxon rank-sum test. […]

The subject of assay [5] is Gne/Mnk M712T homozygous mutant mouse. To be noted: mutant mice otherwise did not survive beyond age 3 after birth; cited from earlier work.

For `NC(=O)C1CCCc2c1[nH]c1ccc(Cl)cc21` (stereo not shown) [EX-527, reference compound], in assay [1], the “recovery of orexin nerve cells (expression of orexin)” value (shortened to “recovery of orexin nerve cells”) is “completely ineffective”.

On to `O=C(CF)NC1C(O)OC(CO)[C@@H](O)[C@@H]1O` (stereo partly shown) [ManNAcF], for which, in assay [1], the “recovery of orexin nerve cells” value is given as “expression of orexin was observed” and the “disappearance of the orexin nerve cells (orexin (Hcrt) expression)” value is on record as “disappearance of the orexin nerve cells could be avoided”. Besides, the “recovery activity of orexin production (Hcrt expression intensity)” value (from here on “recovery activity of orexin production”) in assay [2] is “highest activity”. Besides, the “orexin cell induction activity (Hcrt expression)” value (“orexin cell induction activity” for short) in the assay with human iPS cells is reported as “higher orexin cell induction activity as compared to ManNAc”.

With `CC(=O)N[C@@H]1C(O)O[C@H](CO)[C@@H](O)[C@@H]1O` (stereo partly drawn) [ManNAc, N-acetyl-D-mannosamine], the “decrease in the number of orexin nerve cells and the orexin gene expression” value in assay [3] is listed as “suppressed”. For the same compound, in assay [4], the “histone O-GlcNAc modification level” value is recorded as “increase in the histone O-GlcNAc modification level was observed”. Further, in assay [1], the “recovery of orexin nerve cells” value is reported as “expression of orexin was observed” and the “disappearance of the orexin nerve cells (orexin (Hcrt) expression)” value was “disappearance of the orexin nerve cells could be avoided”. In addition, the “survival of Gne/Mnk M712T homozygous mutant mice” value in assay [5] is listed as “rescued the mice”. The “recovery activity of orexin production” value in assay [2] is recorded as “higher”. The “expression of orexin gene (Hcrt)” value in the assay with human iPS cells (1.0 mM ManNAc from day 0, EX-527 50 nM or BADGP 5 mM from day 14, harvested day 20) is given as “expression of Hcrt was observed”.

Regarding `CCOC(=O)NC1C(O)OC(CO)[C@@H](O)C1O` (stereo partly shown) [ManNCOOEt], in assay [2], the “recovery activity of orexin production” value is given as “low activity”. Moreover, the “orexin cell induction activity” value with human iPS cells is recorded as “higher orexin cell induction activity as compared to ManNAc”.

As to `CC(=O)NC1C(O)SC(CO)[C@@H](O)[C@@H]1O` (stereo partly drawn) [5S-ManNAc], the “recovery activity of orexin production” value in assay [2] is “low activity”.

On to `COC(=O)NC1C(O)OC(CO)[C@@H](O)C1O` (stereo partly shown) [ManNCOOMe], for which the “maintenance of orexin production (Hcrt expression intensity)” value in assay [2] (8-day course: high glucose 25 mM and compound 1 μM from +day 0, harvested +day 8) is “orexin production was maintained except for ManNCOOMe”. Further, the “recovery activity of orexin production” value in assay [2] was “low activity”. In addition, the “orexin cell induction activity” value in the assay with human iPS cells is “higher orexin cell induction activity as compared to ManNAc”.

Take `CC(=O)N[C@H]1[C@@H](OCc2ccccc2)O[C@H](CO)[C@H](O)[C@@H]1O` [BADGP, reference compound]: the “recovery of orexin nerve cells” value in assay [1] is on record as “completely ineffective”.
